Results reported in ChEMBL document CHEMBL5727681, “Alkoxy compounds for disease treatment” (2020).

Test: In Vitro Isomerase Inhibition Assay: Isomerase inhibition reactions were performed essentially as described (Stecher et al., J Biol. Chem. 274:8577-85 (1999).

IC50, < 0.1 µM:
NCCCc1cccc(OCC2CCCCC2)c1
CCC(CC)COc1cccc(CCCN)c1
NCCOc1cccc(OCC2CCCCCC2)c1
NCCC(O)c1cccc(OCC2(O)CCCCC2)c1 (stereo unspecified)
CCCC(CCC)COc1cccc(CCCN)c1
NCCC(=O)c1cccc(OCC2CCCCCC2)c1
NCCOc1cccc(OCC2CCCCC2)c1
NCCCc1cccc(OCC2(O)CCCCC2)c1
NCC(O)Cc1cccc(OCC2CCCCC2)c1 (stereo unspecified)
CCCC(O)(CCC)COc1cccc(C(O)CCN)c1 (stereo unspecified)
NCCC(=O)c1cccc(OCC2CCCCC2)c1
